According to patent publication US20100197797A1 (priority 2009, published 2010):

Tests used:
[1] = system: fibromyalgia patients; test: Placebo-controlled trials in fibromyalgia patients (safety); type: in vivo, human; details: for patients with >15 mmHg increase in SBP at the end of the study / patients with DBP increases >10 mmHg at end of study: hypertensive at baseline; for patients with increases in ALT: mild elevations (1-3 times ULN); for patients who became hypertensive at the end of the study (SBP≧140 mmHg or DBP≧90 mmHg): non-hypertensive at baseline; for incidence of suicidal ideation: patients with a history of depression at treatment initiation; for patients who became hypertensive at the end of the study: pre-hypertension at baseline (SBP 120-139 mmHg); for mean weight loss: up to 3 months
Text: The stated frequencies of adverse reactions represent the proportion of individuals who experienced, at least once, a treatment-emergent adverse reaction of the type listed. A reaction was considered treatment emergent if it occurred for the first time or worsened while receiving therapy following baseline evaluation.

[2] = system: healthy subjects; test: Placebo-controlled clinical pharmacology study, blood pressure at supratherapeutic doses; type: in vivo, human; details: 300 mg twice daily, 12 hour steady state dosing interval
[3] = system: healthy subjects; test: QTcF interval study, placebo- and positive-controlled; type: in vivo, human; details: 600 mg/day
Text: After baseline and placebo adjustment, the maximum mean QTcF change was 8 ms (2-sided 90% CI, 3-12 ms).

[4] = Drug interaction studies in healthy adult subjects; type: in vivo, human
Description: The drug interaction studies described below were conducted in healthy adult subjects.

[5] = Solubility; type: physicochemical
[6] = 3-month placebo-controlled trials
[7] = all milnacipran hydrochloride (n = 1557)

CCN(CC)C(=O)C1(c2ccccc2)CC1CN.Cl (racemic) [milnacipran hydrochloride, (±)-[1R(S),2S(R)]-2-(aminomethyl)-N,N-diethyl-1-phenylcyclopropanecarboxamide hydrochloride]
patients who discontinued prematurely due to adverse reactions ([1]; 100 mg/day): 23% | patients with increases in AST ([1]; 100 mg/day): 3% | patients with increases in pulse≧20 bpm ([1]; 100 mg/day): 8% | sustained increases in DBP (≧10 mmHg on 3 consecutive post-baseline visits) ([1]; 100 mg/day): 13% | sustained increases in SBP (≧15 mmHg on three consecutive post-baseline visits) ([1]; 100 mg/day): 9% | Adverse reaction incidence: Abdominal pain ([1]; 100 mg/day (n = 623)): 3% | Adverse reaction incidence: Anxiety ([1]; 100 mg/day (n = 623)): 5% | Adverse reaction incidence: Blood pressure increased ([1]; 100 mg/day (n = 623)): 3% | Adverse reaction incidence: Chest discomfort ([1]; 100 mg/day (n = 623)): 2% | Adverse reaction incidence: Chest pain ([1]; 100 mg/day (n = 623)): 3% | Adverse reaction incidence: Chills ([1]; 100 mg/day (n = 623)): 1% | Adverse reaction incidence: Constipation ([1]; 100 mg/day (n = 623)): 16% | Adverse reaction incidence: Decreased appetite ([1]; 100 mg/day (n = 623)): 1% | Adverse reaction incidence: Dizziness ([1]; 100 mg/day (n = 623)): 11% | Adverse reaction incidence: Dry mouth ([1]; 100 mg/day (n = 623)): 5% | Adverse reaction incidence: Dyspnea ([1]; 100 mg/day (n = 623)): 2% | Adverse reaction incidence: Flushing ([1]; 100 mg/day (n = 623)): 2% | Adverse reaction incidence: Headache ([1]; 100 mg/day (n = 623)): 19% | Adverse reaction incidence: Heart rate increased ([1]; 100 mg/day (n = 623)): 5% | Adverse reaction incidence: Hot flush ([1]; 100 mg/day (n = 623)): 11% | Adverse reaction incidence: Hyperhidrosis ([1]; 100 mg/day (n = 623)): 8% | Adverse reaction incidence: Hypertension ([1]; 100 mg/day (n = 623)): 7% | Adverse reaction incidence: Hypoesthesia ([1]; 100 mg/day (n = 623)): 1% | Adverse reaction incidence: Insomnia ([1]; 100 mg/day (n = 623)): 12% | Adverse reaction incidence: Migraine ([1]; 100 mg/day (n = 623)): 6% | Adverse reaction incidence: Nausea ([1]; 100 mg/day (n = 623)): 35% | Adverse reaction incidence: Palpitations ([1]; 100 mg/day (n = 623)): 8% | Adverse reaction incidence: Paresthesia ([1]; 100 mg/day (n = 623)): 2% | Adverse reaction incidence: Pruritus ([1]; 100 mg/day (n = 623)): 3% | Adverse reaction incidence: Rash ([1]; 100 mg/day (n = 623)): 3% | Adverse reaction incidence: Tachycardia ([1]; 100 mg/day (n = 623)): 3% | Adverse reaction incidence: Tension headache ([1]; 100 mg/day (n = 623)): 2% | Adverse reaction incidence: Tremor ([1]; 100 mg/day (n = 623)): 2% | Adverse reaction incidence: Upper respiratory tract infection ([1]; 100 mg/day (n = 623)): 7% | Adverse reaction incidence: Vision blurred ([1]; 100 mg/day (n = 623)): 1% | Adverse reaction incidence: Vomiting ([1]; 100 mg/day (n = 623)): 6% | patients with increase in ALT greater than 5 times (not exceeding 10 times) the upper limit of normal ([1]; 100 mg/day, one patient): 0.2% | patients who discontinued prematurely due to adverse reactions ([1]; 200 mg/day): 26% | patients with increases in AST ([1]; 200 mg/day): 5% | patients with increases in pulse≧20 bpm ([1]; 200 mg/day): 8% | sustained increases in DBP (≧10 mmHg on 3 consecutive post-baseline visits) ([1]; 200 mg/day): 10% | sustained increases in SBP (≧15 mmHg on three consecutive post-baseline visits) ([1]; 200 mg/day): 6% | Adverse reaction incidence: Abdominal pain ([1]; 200 mg/day (n = 934)): 3% | Adverse reaction incidence: Anxiety ([1]; 200 mg/day (n = 934)): 3% | Adverse reaction incidence: Blood pressure increased ([1]; 200 mg/day (n = 934)): 3% | Adverse reaction incidence: Chest discomfort ([1]; 200 mg/day (n = 934)): 1% | Adverse reaction incidence: Chest pain ([1]; 200 mg/day (n = 934)): 2% | Adverse reaction incidence: Chills ([1]; 200 mg/day (n = 934)): 2% | Adverse reaction incidence: Constipation ([1]; 200 mg/day (n = 934)): 15% | Adverse reaction incidence: Decreased appetite ([1]; 200 mg/day (n = 934)): 2% | Adverse reaction incidence: Dizziness ([1]; 200 mg/day (n = 934)): 10% | Adverse reaction incidence: Dry mouth ([1]; 200 mg/day (n = 934)): 5% | Adverse reaction incidence: Dyspnea ([1]; 200 mg/day (n = 934)): 2% | Adverse reaction incidence: Flushing ([1]; 200 mg/day (n = 934)): 3% | Adverse reaction incidence: Headache ([1]; 200 mg/day (n = 934)): 17% | Adverse reaction incidence: Heart rate increased ([1]; 200 mg/day (n = 934)): 6% | Adverse reaction incidence: Hot flush ([1]; 200 mg/day (n = 934)): 12% | Adverse reaction incidence: Hyperhidrosis ([1]; 200 mg/day (n = 934)): 9% | Adverse reaction incidence: Hypertension ([1]; 200 mg/day (n = 934)): 4% | Adverse reaction incidence: Hypoesthesia ([1]; 200 mg/day (n = 934)): 2% | Adverse reaction incidence: Insomnia ([1]; 200 mg/day (n = 934)): 12% | Adverse reaction incidence: Migraine ([1]; 200 mg/day (n = 934)): 4% | Adverse reaction incidence: Nausea ([1]; 200 mg/day (n = 934)): 39% | Adverse reaction incidence: Palpitations ([1]; 200 mg/day (n = 934)): 7% | Adverse reaction incidence: Paresthesia ([1]; 200 mg/day (n = 934)): 3% | Adverse reaction incidence: Pruritus ([1]; 200 mg/day (n = 934)): 2% | Adverse reaction incidence: Rash ([1]; 200 mg/day (n = 934)): 4% | Adverse reaction incidence: Tachycardia ([1]; 200 mg/day (n = 934)): 2% | Adverse reaction incidence: Tension headache ([1]; 200 mg/day (n = 934)): 1% | Adverse reaction incidence: Tremor ([1]; 200 mg/day (n = 934)): 2% | Adverse reaction incidence: Upper respiratory tract infection ([1]; 200 mg/day (n = 934)): 6% | Adverse reaction incidence: Vision blurred ([1]; 200 mg/day (n = 934)): 2% | Adverse reaction incidence: Vomiting ([1]; 200 mg/day (n = 934)): 7% | mean increase in diastolic blood pressure (DBP) [1, 6]: up to 3.1 mm Hg | mean increase in systolic blood pressure (SBP) [1, 6]: up to 3.1 mm Hg | dose dependence of effect on heart rate ([1]; 100 vs 200 mg/day): did not appear to increase with increasing dose | Adverse reaction incidence: Abdominal pain [1, 7]: 3% | Adverse reaction incidence: Anxiety [1, 7]: 4% | Adverse reaction incidence: Blood pressure increased [1, 7]: 3% | Adverse reaction incidence: Chest discomfort [1, 7]: 1% | Adverse reaction incidence: Chest pain [1, 7]: 2% | Adverse reaction incidence: Chills [1, 7]: 2% | Adverse reaction incidence: Constipation [1, 7]: 16% | Adverse reaction incidence: Decreased appetite [1, 7]: 2% | Adverse reaction incidence: Dizziness [1, 7]: 10% | Adverse reaction incidence: Dry mouth [1, 7]: 5% | Adverse reaction incidence: Dyspnea [1, 7]: 2% | Adverse reaction incidence: Flushing [1, 7]: 3% | Adverse reaction incidence: Headache [1, 7]: 18% | Adverse reaction incidence: Heart rate increased [1, 7]: 6% | Adverse reaction incidence: Hot flush [1, 7]: 12% | Adverse reaction incidence: Hyperhidrosis [1, 7]: 9% | Adverse reaction incidence: Hypertension [1, 7]: 5% | Adverse reaction incidence: Hypoesthesia [1, 7]: 1% | Adverse reaction incidence: Insomnia [1, 7]: 12% | Adverse reaction incidence: Migraine [1, 7]: 5% | Adverse reaction incidence: Nausea [1, 7]: 37% | Adverse reaction incidence: Palpitations [1, 7]: 7% | Adverse reaction incidence: Paresthesia [1, 7]: 2% | Adverse reaction incidence: Pruritus [1, 7]: 2% | Adverse reaction incidence: Rash [1, 7]: 3% | Adverse reaction incidence: Tachycardia [1, 7]: 2% | Adverse reaction incidence: Tension headache [1, 7]: 1% | Adverse reaction incidence: Tremor [1, 7]: 2% | Adverse reaction incidence: Upper respiratory tract infection [1, 7]: 6% | Adverse reaction incidence: Vision blurred [1, 7]: 2% | Adverse reaction incidence: Vomiting [1, 7]: 7% | elevated transaminases vs placebo ([1]; clinical trials): more patients treated with milnacipran hydrochloride developed elevated transaminases | risk of mydriasis ([1]; clinical trials): increased risk of mydriasis | incidence of dysuria ([1]; controlled fibromyalgia trials): 1% | incidence of genitourinary adverse reactions in male patients ([1]; each of dysuria, ejaculation disorder, erectile dysfunction, ejaculation failure, libido decreased, prostatitis, scrotal pain, testicular pain, testicular swelling, urinary hesitation, urinary retention, urethral pain, urine flow decreased, rate greater than placebo): at least 2% | increases of bilirubin ([1]; fibromyalgia clinical trials): not clinically significant | cases of ALT>3×ULN associated with bilirubin≧2×ULN ([1]; human, in vivo): No case | most common adverse reactions (incidence≧5% and twice placebo) ([1]; human, in vivo): constipation, hot flush, hyperhidrosis, vomiting, palpitations, heart rate increased, dry mouth, and hypertension | most frequently occurring adverse reaction ([1]; human, in vivo): nausea | patients with >15 mmHg increase in SBP at the end of the study ([1]; 100 mg/day): 7% | patients with DBP increases >10 mmHg at end of study ([1]; 100 mg/day): 8% | patients with >15 mmHg increase in SBP at the end of the study ([1]; 200 mg/day): 2% | patients with DBP increases >10 mmHg at end of study ([1]; 200 mg/day): 6% | patients with increases in ALT ([1]; 100 mg/day): 6% | patients with increases in ALT ([1]; 200 mg/day): 7% | patients who became hypertensive at the end of the study (SBP≧140 mmHg or DBP≧90 mmHg) ([1]; 100 mg/day): 19.5% | patients who became hypertensive at the end of the study (SBP≧140 mmHg or DBP≧90 mmHg) ([1]; 200 mg/day): 16.6% | incidence of suicidal ideation ([1]; 100 mg/day): 0% | incidence of suicidal ideation ([1]; 200 mg/day): 1.3% | patients who became hypertensive at the end of the study ([1]; 100 mg/day): 14% | patients who became hypertensive at the end of the study ([1]; 200 mg/day): 14% | suicides ([1]; short-term or longer-term (up to 1 year) fibromyalgia trials): No suicides occurred | activation of mania or hypomania ([1]; trials excluded current major depressive episode): No activation of mania or hypomania was reported | mean weight loss ([1]; 100 mg/day): approximately 0.8 kg | mean weight loss ([1]; 200 mg/day): approximately 0.8 kg | mean increase in supine diastolic blood pressure [2]: up to 11.5 mm Hg | mean increase in supine systolic blood pressure [2]: up to 10.0 mm Hg | clinical significance of QTcF increase [3]: not considered to be clinically significant | maximum mean QTcF change ([3]; after baseline and placebo adjustment (2-sided 90% CI, 3-12 ms)): 8 ms | pharmacokinetic interaction with digoxin ([4]; 200 mg/day and digoxin 0.2 mg/day Lanoxicaps, multiple-dose): no pharmacokinetic interaction | change in pharmacokinetics of carbamazepine or its epoxide metabolite ([4]; co-administration with milnacipran hydrochloride): No changes were observed | adverse events after switching from clomipramine ([4]; human, in vivo): an increase in euphoria and postural hypotension | hemodynamic adverse effects in combination with digoxin ([4]; intravenously administered digoxin (1 mg)): Postural hypotension and tachycardia have been reported | effect on pharmacokinetics of lithium ([4]; multiple doses, 100 mg/day): did not affect | pharmacokinetic interaction with lorazepam ([4]; single dose 50 mg and lorazepam 1.5 mg): no pharmacokinetic interaction | solubility ([5]; chloroform): freely soluble | solubility ([5]; diethyl ether): sparingly soluble | solubility ([5]; ethanol): freely soluble | solubility ([5]; methanol): freely soluble | solubility ([5]; methylene chloride): freely soluble | solubility ([5]; water): freely soluble
